test system: Botrytis cinerea; assay: C2: gray mold on bell pepper leaves caused by Botrytis cinerea, 1 day protective application (comparison with the prior art); assay type: in vivo; conditions: after 5 days, untreated control 100
Protocol: The active compounds were prepared separately as a stock solution with 25 mg of active compound, which was made up to 10 ml with a mixture of acetone and/or DMSO and the emulsifier Uniperol® EL (wetting agent with emulsifying and dispersing action based on ethoxylated alkylphenols) in the volume ratio solvent/emulsifier of from 99 to 1. Subsequently, it was made up to 100 ml with water. This stock solution was diluted with the described solvent/emulsifier/water mixture to the active compound concentration indicated below. Alternatively, the active compounds were used as a commercially available ready-to-use solution and diluted with water to the active compound concentration indicated. Bell pepper seedlings were, after 2-3 leaves were well developed, sprayed to run off point with an aqueous suspension having the active compound concentration stated below. The next day, the treated plants were inoculated with a spore suspension of Botrytis cinerea in a 2% biomalt solution. The test plants were then placed in a dark acclimatized chamber at 22 to 24° C. and high atmospheric humidity. After 5 days, the extent of the fungal infection on the leaves could be determined visually in %.

| SMILES | Infection (%) at 600 ppm C2 |
| --- | --- |
| CC(C)(C)C(O)C(CCCc1cccc(Cl)c1)n1cncn1 (stereo not shown) | 15% |
| CC(C)(C)C(O)C(CCCc1ccccc1Cl)n1cncn1 (stereo not shown) [drawing 19] | 7% |
| CC(C)(C)C(O)C(CCCc1ccccc1Cl)n1cncn1 (stereo not shown) [drawing 21] | 10% |
| CC(C)(C)C(O)C(CCCc1ccc(Cl)cc1)n1cncn1 (stereo not shown) [reference compound] | 70% |

test system: Phakopsora pachyrhizi; assay: Example G2: curative activity against soybean rust caused by Phakopsora pachyrhizi (greenhouse); assay type: in vivo; conditions: 600 ppm; soybean seedlings, curative spray two days after inoculation, assessed after a further 10 days; untreated plants 100% infected

| SMILES | infection |
| --- | --- |
| CC(Cc1cc(F)ccc1F)CC(C(O)C(C)(C)C)n1cncn1 (mixture of isomers) [I.A26b] | 0% |
| CC(Cc1ccc(F)cc1F)CC(C(O)C(C)(C)C)n1cncn1 (mixture of isomers) [I.A30a] | 0% |
| CC(CCC(C(O)C(C)(C)C)n1cncn1)c1ccccc1F (mixture of isomers) [I.A36b] | 0% |
| CC(Cc1cccc(Cl)c1)CC(C(O)C(C)(C)C)n1cncn1 (mixture of isomers) [I.A39a] | 0% |
| CC(C)(C)C(O)C(CCCc1cc(F)ccc1F)n1cncn1 (racemic) [I.A24b] | 0% |
| CC(C)(C)C(O)C(CCCc1cccc(F)c1F)n1cncn1 (racemic) [I.A25b] | 0% |
| CC(Cc1ccc(F)cc1F)CC(C(O)C(C)(C)C)n1cncn1 (stereo not shown) [I.A30b, 7-(2,4-difluorophenyl)-2,2,6-trimethyl-4-[1,2,4]triazol-1-ylheptan-3-ol] | 0% |

test system: Phytophthora infestans; assay: not given; assay type: in vivo; conditions: tomato, protective, after 6 days, untreated control 90

| SMILES | Infection (%) at 600 ppm C1 |
| --- | --- |
| CC(C)(C)C(O)C(CCCc1ccc(Cl)cc1Cl)n1cncn1 (stereo not shown) | 7% |
| CC(Cc1ccc(Cl)cc1Cl)CC(C(O)C(C)(C)C)n1cncn1 (stereo not shown) [reference compound] | 90% |

From patent publication US20110172099A1, “Imidazole and Triazole Compounds, Their Use and Agents Containing the Same” (BASF SE, priority 2008, published 2011)
